Results: US10226452B2, “Benzoxazolone derivatives as acid ceramidase inhibitors, and their use as medicaments” (FONDAZIONE ISTITUTO ITALIANO DI TECNOLOGIA, priority 2014, dated 2019)

Tests used:
[1] = biological target: human (hAC) acid ceramidase (Homo sapiens (Human), UniProt Q13510); assay: fluorescent-based in vitro assay on human acid ceramidase; type: biochemical; details: hAC-enriched lysosomal lysate from HEK293 cells; fluorogenic probe 5 μM; pH 4.5
Source text: To evaluate the potency of the compounds towards acid ceramidase, a fluorescence-based in vitro assay previously described in literature (Bedia C et al., ChemBioChem, 2007, 8, 642-648) was implemented and optimized. This assay is based on a “fluorogenic probe” containing a coumarin group and a sphingoid base moiety (see figure below), which is not fluorescent in itself, but upon enzymatic cleavage by acid ceramidase followed by a chemical transformation liberates the fluorescent molecule umbelliferone (7-hydroxychromen-2-one). By quantifying the generation of umbelliferone using a fluorescence plate-reader, the level of enzymatic activity can be measured, whereby IC50 values of compounds that inhibit this activity can be generated.
Lysosomal lysate, enriched with acid ceramidase, was prepared from a cell line stably expressing human acid ceramidase. In the assay, the fluorogenic probe (or substrate) serves as a ceramide-analogue, which is recognized and hydrolyzed at the amide bond by acid ceramidase from the enriched lysate to yield the fatty acid and coumarinic aminodiol. By treating the solution with sodium periodate (NaIO4), the coumarinic aminodiol is subsequently oxidized into an aldehyde intermediate, which undergoes a β-elimination reaction to release the strongly fluorescent umbelliferone.
A lysosomal human acid ceramidase protein preparation was obtained from HEK293 cells stably expressing acid ceramidase suspended in 20 mM Tris HCl (pH 7.5) with 0.32 M sucrose. The cell solution was sonicated and centrifuged at 800×g for 15 min at 4° C. Supernatants were then centrifuged at 12,000×g for 30 min at 4° C. Pellets were re-suspended in PBS pH 7.4 and subjected to two freeze-thaw cycles at −80° C. The suspension was finally centrifuged at 105,000×g for 1 hour at 4° C. and protein concentration was measured in the supernatant with bicinchinonic-acid based protein assay. This human acid ceramidase-enriched preparation allowed us to further optimize the enzymatic assay and to use smaller amounts of lysate (2 μg/well) and substrate (5 μM).
The assay was performed in Optiplate 96-wells black plates, with each reaction well containing a mixture of 25 mM sodium acetate buffer pH 4.5 and a fixed amount of protein (2 μg) in a volume of 85 μL. After 30 mins of pre-incubation with test compounds (diluted 20× from DMSO stock solutions at different concentrations), the fluorogenic probe was added (diluted 20× from EtOH stock solution, final concentration 5 μM). After incubation for 3 hours at 37° C., the reactions were stopped with 50 μL of methanol and 100 μL of a 2.5 mg/mL NalO4 fresh solution in 100 mM Glycine/NaOH pH 10.6. The plate was incubated at 37° C. for 2 hours in the dark and fluorescence intensities were measured at excitation/emission wavelengths of 360/446 nm. Negative control samples consisted of the same incubation mixture in the absence of protein extracts. The IC50 values or percent of inhibition, at the indicated concentration, of selected compounds described in the invention are reported in Table 2.

[2] = biological target: AC (Mus musculus (Mouse), UniProt Q9WV54); assay: AC activity ex vivo in mouse tissues after systemic administration; details: mice
Chain of AC (Q9WV54 19-141): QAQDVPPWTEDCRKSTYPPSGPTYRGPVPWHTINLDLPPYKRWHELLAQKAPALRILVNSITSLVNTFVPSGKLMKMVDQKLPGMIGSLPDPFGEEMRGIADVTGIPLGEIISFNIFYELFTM
Chain of AC (Q9WV54 142-394): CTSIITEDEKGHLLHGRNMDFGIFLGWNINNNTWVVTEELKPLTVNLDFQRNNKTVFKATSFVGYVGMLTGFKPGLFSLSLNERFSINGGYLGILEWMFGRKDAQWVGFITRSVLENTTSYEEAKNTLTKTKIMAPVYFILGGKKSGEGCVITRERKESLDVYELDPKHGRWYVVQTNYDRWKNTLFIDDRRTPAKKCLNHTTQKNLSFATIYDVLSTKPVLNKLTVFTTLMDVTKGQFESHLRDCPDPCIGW
Description: Specifically, it is evidences the effects of compound of Example 7 or vehicle (15% polyethylene glycol, 15% Tween80, 70% saline) on AC activity in mouse lungs. AC activity measured ex vivo 30 minutes or 3 hours after intraperitoneal injection of compound of Example 7 (10 mg-kg^−1). Results are expressed as mean±s.e.m. (n=6). ***p<0.001 vs vehicle, one-way ANOVA followed by Dunnet.
Specifically, FIG. 7 illustrates the effects of compound of Example 25 or vehicle (15% polyethylene glycol, 15% Tween80, 70% saline) on AC activity in mouse lungs (oral administration, A) or cerebral cortex (intraperitoneal administration, B) and on ceramide levels (C and D). Results are expressed as mean±s.e.m. (n=6). *p<0.05, **p<0.01, ***p<0.001 vs vehicle, one-way ANOVA followed by Dunnet.
hAC protein preparation (10 μg) was preincubated with inhibitors (final DMSO concentration 1%) in assay buffer (100 mM sodium phosphate, 0.1% Nonidet P-40, 150 mM NaCl, 3 mM DTT, 100 mM sodium citrate, pH 4.5) for 30 min at 37° C. Reactions were started by the addition of 50 μM N-lauroyl ceramide (Nu-Chek Prep, Elysian, Minn.) and carried on for 30 min at 37° C. Reactions were stopped by addition of a mixture of chloroform/methanol (2:1, vol/vol) containing 1 nmol 11-lauroleic acid (NuChek Prep). The organic phases were collected, dried under nitrogen and analyzed by UPLC/MS (Acquity, Waters). In the negative-ion mode monitoring the reaction product (lauric acid, m/z=199) using 11-lauroleic acid as internal standard.

[3] = biological target: COX1 (h) (Homo sapiens (Human), UniProt P23219); assay: Cerep enzyme inhibition screen: COX1; type: biochemical; details: mean of two determinations, read-out: Inhibitory activity (% Inh. at 10 μM), mean
Chain of COX1 (h) (P23219 24-599): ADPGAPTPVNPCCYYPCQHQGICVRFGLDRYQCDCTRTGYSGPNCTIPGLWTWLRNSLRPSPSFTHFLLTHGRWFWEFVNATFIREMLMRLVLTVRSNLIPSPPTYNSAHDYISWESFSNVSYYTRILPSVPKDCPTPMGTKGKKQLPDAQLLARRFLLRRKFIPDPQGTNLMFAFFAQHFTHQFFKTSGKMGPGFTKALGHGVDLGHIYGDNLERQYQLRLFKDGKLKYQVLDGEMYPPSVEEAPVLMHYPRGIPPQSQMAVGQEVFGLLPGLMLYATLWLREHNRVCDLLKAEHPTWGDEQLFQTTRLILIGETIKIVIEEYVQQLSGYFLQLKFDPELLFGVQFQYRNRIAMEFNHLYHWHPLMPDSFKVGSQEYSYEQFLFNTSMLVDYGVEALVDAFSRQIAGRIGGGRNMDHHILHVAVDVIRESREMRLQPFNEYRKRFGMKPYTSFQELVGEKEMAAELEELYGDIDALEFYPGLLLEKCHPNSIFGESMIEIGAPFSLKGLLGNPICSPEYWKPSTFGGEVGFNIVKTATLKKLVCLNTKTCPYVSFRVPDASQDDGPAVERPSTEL
Source text: (§1) Compound of Example 25 falling in both Formula (I) and (Ia) was selected to be tested for off-target effects on a set of enzymes that include proteases (aspartic, cysteine, and serine), cyclooxygenases as well as lipoxygenases and group IV phospholipase (sPLA2) (Table 3). [table]

[4] = biological target: COX2 (h) (Homo sapiens (Human), UniProt P35354); assay: Cerep enzyme inhibition screen: COX2; type: biochemical; details: mean of two determinations, read-out: Inhibitory activity (% Inh. at 10 μM), mean
Chain of COX2 (h) (P35354 18-604): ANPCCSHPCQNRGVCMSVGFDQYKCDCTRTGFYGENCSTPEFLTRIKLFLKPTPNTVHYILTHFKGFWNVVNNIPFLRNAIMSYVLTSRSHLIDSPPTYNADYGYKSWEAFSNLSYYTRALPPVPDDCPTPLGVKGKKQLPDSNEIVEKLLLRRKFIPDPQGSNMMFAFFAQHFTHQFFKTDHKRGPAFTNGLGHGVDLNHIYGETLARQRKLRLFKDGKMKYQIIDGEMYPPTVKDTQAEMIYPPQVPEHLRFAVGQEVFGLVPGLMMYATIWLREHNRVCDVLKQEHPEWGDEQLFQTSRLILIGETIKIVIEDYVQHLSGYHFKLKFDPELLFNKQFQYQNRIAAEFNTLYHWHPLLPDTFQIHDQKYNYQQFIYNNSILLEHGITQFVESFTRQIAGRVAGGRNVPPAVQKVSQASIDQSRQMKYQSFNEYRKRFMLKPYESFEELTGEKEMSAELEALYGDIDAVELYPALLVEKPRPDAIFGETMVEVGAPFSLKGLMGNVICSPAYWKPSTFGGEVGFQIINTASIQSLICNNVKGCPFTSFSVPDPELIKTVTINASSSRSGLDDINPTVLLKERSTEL
Source text: as §1

[5] = biological target: caspase-3 (h) (Homo sapiens (Human), UniProt P42574); assay: Cerep enzyme inhibition screen: caspase-3; type: biochemical; details: mean of two determinations, read-out: Inhibitory activity (% Inh. at 10 μM), mean
Chain of caspase-3 (h) (P42574 29-175): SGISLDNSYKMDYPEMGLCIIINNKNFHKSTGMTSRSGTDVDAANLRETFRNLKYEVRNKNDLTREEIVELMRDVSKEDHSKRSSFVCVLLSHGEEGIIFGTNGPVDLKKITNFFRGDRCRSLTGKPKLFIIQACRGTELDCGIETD
Chain of caspase-3 (h) (P42574 176-277): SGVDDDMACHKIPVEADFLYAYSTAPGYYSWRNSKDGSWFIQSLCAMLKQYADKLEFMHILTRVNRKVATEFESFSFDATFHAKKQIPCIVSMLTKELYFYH
Source text: as §1

[6] = biological target: caspase-8 (h) (Homo sapiens (Human), UniProt Q14790); assay: Cerep enzyme inhibition screen: caspase-8; type: biochemical; details: mean of two determinations, read-out: Inhibitory activity (% Inh. at 10 μM), mean
Chain of caspase-8 (h) (Q14790 217-374): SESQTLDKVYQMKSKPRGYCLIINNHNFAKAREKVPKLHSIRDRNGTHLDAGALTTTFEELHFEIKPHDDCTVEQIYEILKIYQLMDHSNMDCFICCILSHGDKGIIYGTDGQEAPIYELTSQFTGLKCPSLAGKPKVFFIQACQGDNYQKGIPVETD
Chain of caspase-8 (h) (Q14790 385-479): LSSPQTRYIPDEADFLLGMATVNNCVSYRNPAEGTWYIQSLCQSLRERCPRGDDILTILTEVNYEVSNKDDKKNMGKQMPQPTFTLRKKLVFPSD
Source text: as §1

[7] = biological target: cathepsin B (h) (Homo sapiens (Human), UniProt P07858); assay: Cerep enzyme inhibition screen: cathepsin B; type: biochemical; details: mean of two determinations, read-out: Inhibitory activity (% Inh. at 10 μM), mean
Source text: as §1

Chain of human (hAC) acid ceramidase (Q13510 22-142): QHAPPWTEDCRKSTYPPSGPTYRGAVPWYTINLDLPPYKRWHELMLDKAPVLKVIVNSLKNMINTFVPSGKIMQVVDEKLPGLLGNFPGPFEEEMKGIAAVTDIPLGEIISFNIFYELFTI
Chain of human (hAC) acid ceramidase (Q13510 143-395): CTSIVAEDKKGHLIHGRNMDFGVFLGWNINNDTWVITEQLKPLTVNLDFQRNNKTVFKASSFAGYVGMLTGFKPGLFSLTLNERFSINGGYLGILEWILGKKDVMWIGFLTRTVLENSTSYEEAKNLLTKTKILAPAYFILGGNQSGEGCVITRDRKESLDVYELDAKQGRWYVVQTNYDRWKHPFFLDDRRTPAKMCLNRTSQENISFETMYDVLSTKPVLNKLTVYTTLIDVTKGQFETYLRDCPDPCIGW

SMILES | IC50 [1] [nM] | AC activity in lungs ([2]; 10 mg-kg^−1 intraperitoneal, after 30 minutes or 3 hours) | inhibition at 10 µM [3] [%] | inhibition at 10 µM [4] [%] | inhibition at 10 µM [5] [%] | inhibition at 10 µM [6] [%] | inhibition at 10 µM [7] [%] | AC activity in lungs ([2]; 3 or 10 mg-kg^−1, intraperitoneal or oral (FIG. 7A oral)) | AC activity in brain cortex ([2]; 3 or 10 mg-kg^−1, intraperitoneal or oral (FIG. 7B intraperitoneal))
O=C(NCCCCc1ccccc1)n1c(=O)oc2cc(Br)ccc21 [Example 7, 6-Bromo-2-oxo-N-(4-phenylbutyl)-1,3-benzoxazole-3-carboxamide] | 33 ± 9 | time-dependent inhibition of AC activity in lungs |  |  |  |  |  |  | 
O=C(NCCCCc1ccccc1)n1c(=O)oc2cc(-c3ccc(F)cc3)ccc21 [Example 25, 6-(4-Fluorophenyl)-2-oxo-N-(4-phenylbutyl)-1,3-benzoxazole-3-carboxamide] |  |  | -6.1 | 6.7 | 1.9 | -0.9 | 9.9 | time and dose-dependent inhibition of AC activity | time and dose-dependent inhibition of AC activity
